Measurements published in patent publication US20110158919A1, “AROMA COMPOSITION COMPRISING O-COUMARIC ACID TO REDUCE OR SUPPRESS UNDESIRABLE TASTE IMPRESSIONS OF SWEETENERS” (SYMRISE AG, priority 2009, published 2011).
Where a name gives a salt, the structure may show the parent alone.

Key:
[1] = Stability test for OCA in a carbonated soft drink; assay type: physicochemical; settings: 5000 Lux at 37° C. for 9 days
Protocol: Test 2: Stability Test for OCA in a Carbonated Soft Drink A carbonated soft drink was prepared consisting of water, 10 ppm trans-o-coumaric acid, 350 ppm Rebaudioside A, 250 ppm sodium benzoate, 150 ppm potassium sorbate, 0.1 wt.-% of lemon/lime extract flavour and 0.15 wt.-% sodium citrate/citric acid. The latter was added to obtain a pH of 3.0±0.2. Said mixture was carbonated with 2.7 volumes of carbon dioxide. This PET-bottled drink was stressed with 5000 Lux at 37° C. for 9 days, thereby simulating a storage time (shelf life) of about 9 months at 20° C. At the end of the test the soft drink still contained 8 ppm of OCA, corresponding to an OCA-stability of 80% after a storage time of about 9 months.

[2] = Solubility of homoeriodictyol salts; assay type: physicochemical; settings: in words

Structure (SMILES)	OCA content of the soft drink at the end of the test ([1]; 10 ppm at start, PET-bottled carbonated soft drink, pH 3.0±0.2) [ppm]	OCA-stability ([1]; simulating a storage time of about 9 months at 20° C.) [%]	solubility compared with pure homoeriodictyol sodium salt [2]
O=C(O)/C=C/c1ccccc1O [OCA, (E)-3-(2-hydroxyphenyl)-2-propenoic acid]	8	80	–
COc1cc([C@@H]2CC(=O)c3c(O)cc(O)cc3O2)ccc1O [homoeriodictyol potassium salt]	–	–	better solubility
